Consider 17 compounds from patent US20250179000A1 (Sanford Burnham Prebys Medical Discovery Institute, priority 2021, published 2025).

Each structure is given as a SMILES string. Bounds are passed on as bounds.

Common to all, as to format: cell-based
The target in one test is Human mGlu3 (Homo sapiens, UniProt Q14832). Kind of test: mGlu receptor in vitro assay, human mGlu3. The method, then: (§1) Human Embryonic Kidney (HEK-293) cell lines co-expressing rat mGlu receptors 2, 3, 4, 6, 7 or 8 and G protein-coupled inwardly-rectifying potassium (GIRK) channels were grown in Growth Media containing 45% DMEM, 45% F-12, 10% FBS, 20 mM HEPES, 2 mM L-glutamine, antibiotic/antimycotic, non-essential amino acids, 700 μg/mL G418, and 0.6 μg/ml puromycin at 37° C. in the presence of 5% CO2. […] All cell culture reagents were purchased from Invitrogen Corp. (Carlsbad, CA) unless otherwise noted. Calcium assays were used to assess activity of compounds at mGlu1 and mGlu5, as previously described in Engers et al (J. Med. Chem. 2009, 52, 4115-4118). Calcium assays at mGlu3 were performed as described for mGlu5 with the exception that TREx293 mGlu3 Gα15 cells were treated with tetracycline at 20 ng/mL for 20 h prior to assay.
Chain of Human mGlu3 (Q14832 23-879): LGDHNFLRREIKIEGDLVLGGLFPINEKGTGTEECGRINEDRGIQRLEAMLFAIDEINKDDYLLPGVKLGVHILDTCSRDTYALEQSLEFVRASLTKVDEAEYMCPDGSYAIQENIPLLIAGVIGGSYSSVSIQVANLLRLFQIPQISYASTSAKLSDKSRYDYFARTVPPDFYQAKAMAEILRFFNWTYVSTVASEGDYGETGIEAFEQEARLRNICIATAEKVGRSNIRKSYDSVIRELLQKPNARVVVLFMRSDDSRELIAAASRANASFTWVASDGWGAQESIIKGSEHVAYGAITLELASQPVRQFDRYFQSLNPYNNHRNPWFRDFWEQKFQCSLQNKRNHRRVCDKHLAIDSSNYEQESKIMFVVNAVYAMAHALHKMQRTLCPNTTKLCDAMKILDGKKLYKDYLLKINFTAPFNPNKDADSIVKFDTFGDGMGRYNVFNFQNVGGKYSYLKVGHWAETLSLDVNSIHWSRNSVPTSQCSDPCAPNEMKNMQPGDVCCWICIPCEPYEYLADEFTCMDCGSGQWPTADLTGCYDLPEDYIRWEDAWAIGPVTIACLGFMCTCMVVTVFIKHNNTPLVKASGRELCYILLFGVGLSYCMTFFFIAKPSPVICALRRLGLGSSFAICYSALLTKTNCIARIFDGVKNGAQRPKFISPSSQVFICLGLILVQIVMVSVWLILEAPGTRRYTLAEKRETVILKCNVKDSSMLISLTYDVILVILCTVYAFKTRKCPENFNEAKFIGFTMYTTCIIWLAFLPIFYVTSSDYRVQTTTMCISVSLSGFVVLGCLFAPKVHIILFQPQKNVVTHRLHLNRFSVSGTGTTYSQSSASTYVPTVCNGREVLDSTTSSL
(§2) Briefly, cells were plated into 384-well, black-walled, clear-bottomed poly-D-lysine-coated plates at a density of 15,000 cells/20 μL/well in DMEM containing 10% dialyzed FBS, 20 mM HEPES, and 100 units/mL penicillin/streptomycin (assay media). Plated cells were incubated overnight at 37° C. in the presence of 5% CO2. The following day, the medium was exchanged from the cells to assay buffer [Hanks' balanced salt solution (Invitrogen) containing 20 mM HEPES, pH 7.3] using an ELX405 microplate washer (BioTek), leaving 20 μL/well, followed by the addition of 20 μL/well FluoZin2-AM (330 nM final concentration) indicator dye (Invitrogen; prepared as a stock in DMSO and mixed in a 1:1 ratio with Pluronic acid F-127) in assay buffer. Cells were incubated for 1 h at room temperature, and the dye exchanged to assay buffer using an ELX405, leaving 20 μL/well. Test compounds were diluted to 2 times their final desired concentration in assay buffer (0.3% DMSO final concentration). Agonists were diluted in thallium buffer [125 mM sodium bicarbonate (added fresh the morning of the experiment), 1 mM magnesium sulfate, 1.8 mM calcium sulfate, 5 mM glucose, 12 mM thallium sulfate, and 10 mM HEPES, pH 7.3] at 5 times the final concentration to be assayed. Cell plates and compound plates were loaded onto a kinetic imaging plate reader (FDSS 6000 or 7000; Hamamatsu Corporation, Bridgewater, NJ). Appropriate baseline readings were taken (10 images at 1 Hz; excitation, 470±20 nm; emission, 540±30 nm) and test compounds were added in a 20 μL volume and incubated for approximately 2.5 min before the addition of 10 μL of thallium buffer with or without agonist. After the addition of agonist, data were collected for approximately an additional 2.5 min. Data were analyzed using Excel (Microsoft Corp, Redmond, WA). The slope of the fluorescence increase beginning 5 s after thallium/agonist addition and ending 15 s after thallium/agonist addition was calculated, corrected to vehicle and maximal agonist control slope values, and plotted in using either XLfit (ID Business Solutions Ltd) or Prism software (GraphPad Software, San Diego, CA) to generate concentration-response curves. Potencies were calculated from fits using a four-point parameter logistic equation. For concentration-response curve experiments, compounds were serially diluted 1:3 into 10-point concentration response curves and were transferred to daughter plates using an Echo acoustic plate reformatter (Labcyte, Sunnyvale, CA). Test compounds were applied and followed by EC20 concentrations of glutamate.

In another test the target is Human mGlu2 (Homo sapiens, UniProt Q14416). Kind of test: mGlu receptor in vitro assay, human mGlu2.
Chain of Human mGlu2 (Q14416 19-872): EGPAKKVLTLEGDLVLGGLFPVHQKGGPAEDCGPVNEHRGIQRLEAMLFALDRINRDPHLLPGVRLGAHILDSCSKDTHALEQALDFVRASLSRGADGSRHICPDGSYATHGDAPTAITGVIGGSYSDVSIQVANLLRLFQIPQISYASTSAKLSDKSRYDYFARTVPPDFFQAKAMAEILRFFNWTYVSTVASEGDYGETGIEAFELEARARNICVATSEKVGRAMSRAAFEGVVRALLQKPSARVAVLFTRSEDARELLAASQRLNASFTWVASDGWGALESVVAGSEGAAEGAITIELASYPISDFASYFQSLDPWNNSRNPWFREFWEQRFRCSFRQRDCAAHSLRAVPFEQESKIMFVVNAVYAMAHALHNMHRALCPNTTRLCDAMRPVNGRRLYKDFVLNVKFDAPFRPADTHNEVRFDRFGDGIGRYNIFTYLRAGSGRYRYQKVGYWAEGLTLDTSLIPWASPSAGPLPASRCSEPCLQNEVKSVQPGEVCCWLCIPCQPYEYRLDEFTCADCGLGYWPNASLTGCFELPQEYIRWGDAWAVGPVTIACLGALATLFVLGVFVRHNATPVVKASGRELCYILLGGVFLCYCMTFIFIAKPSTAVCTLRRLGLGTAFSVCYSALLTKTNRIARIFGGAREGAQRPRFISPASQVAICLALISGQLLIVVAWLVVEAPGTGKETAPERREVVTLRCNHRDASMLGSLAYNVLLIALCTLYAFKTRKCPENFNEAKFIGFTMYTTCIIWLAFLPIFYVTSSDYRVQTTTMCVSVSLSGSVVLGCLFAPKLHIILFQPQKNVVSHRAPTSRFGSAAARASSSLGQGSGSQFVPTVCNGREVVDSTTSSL
Another test has as its target T1, Rat mGlu3 (Rattus norvegicus, UniProt P31422).
T1 construct: expressed in transfected cells; host or cells: HEK-293 co-expressing GIRK channels
Kind of test: mGlu receptor in vitro assay (thallium flux through GIRK channels / calcium assay), rat mGlu3. Conditions: PAM potency with EC20 glutamate. The method, then:
as §1
as §2, with “Compound activity at the group II (mGlu2 and mGlu3) and group III (mGlu4, mGlu6, mGlu7, and mGlu8) was assessed using thallium flux through GIRK channels, a method that has been described in detail. Briefly,” for “Briefly,”

The target in a further test is T2, Rat mGlu2 (Rattus norvegicus, UniProt P31421).
T2 construct: expressed in transfected cells; host or cells: HEK-293 co-expressing GIRK channels
T2 sequence (P31421 19-872): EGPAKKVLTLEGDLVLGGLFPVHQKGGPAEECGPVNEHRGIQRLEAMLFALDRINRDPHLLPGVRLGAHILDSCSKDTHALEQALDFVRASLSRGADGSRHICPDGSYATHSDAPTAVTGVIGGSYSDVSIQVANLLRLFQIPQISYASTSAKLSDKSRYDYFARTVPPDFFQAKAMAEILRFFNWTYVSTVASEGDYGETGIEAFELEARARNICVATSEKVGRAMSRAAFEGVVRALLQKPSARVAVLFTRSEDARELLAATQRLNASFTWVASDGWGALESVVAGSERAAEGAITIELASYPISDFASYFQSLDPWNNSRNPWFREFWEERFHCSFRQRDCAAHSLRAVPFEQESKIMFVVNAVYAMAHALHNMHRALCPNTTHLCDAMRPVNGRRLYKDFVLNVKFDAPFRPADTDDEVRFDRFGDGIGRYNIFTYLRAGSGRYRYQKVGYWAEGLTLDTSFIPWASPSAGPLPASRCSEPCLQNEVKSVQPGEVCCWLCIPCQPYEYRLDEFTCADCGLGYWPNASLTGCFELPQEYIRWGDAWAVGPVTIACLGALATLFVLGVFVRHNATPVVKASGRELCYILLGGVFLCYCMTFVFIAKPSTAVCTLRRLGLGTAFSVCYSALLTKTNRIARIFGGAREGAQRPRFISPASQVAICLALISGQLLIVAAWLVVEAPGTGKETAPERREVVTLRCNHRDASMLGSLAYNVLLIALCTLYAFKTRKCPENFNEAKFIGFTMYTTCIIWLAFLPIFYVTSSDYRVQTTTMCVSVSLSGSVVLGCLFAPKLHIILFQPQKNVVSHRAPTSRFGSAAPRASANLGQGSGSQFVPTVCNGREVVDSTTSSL
Kind of test: mGlu receptor in vitro assay, thallium flux through GIRK channels, rat mGlu2. Particulars: PAM potency with EC20 glutamate. The protocol: as §1
as §2, with “Compound activity at the group II (mGlu2 and mGlu3) and group III (mGlu4, mGlu6, mGlu7, and mGlu8) was assessed using thallium flux through GIRK channels, a method that has been described in detail. Briefly,” for “Briefly,”

T1 sequence (P31422 23-879): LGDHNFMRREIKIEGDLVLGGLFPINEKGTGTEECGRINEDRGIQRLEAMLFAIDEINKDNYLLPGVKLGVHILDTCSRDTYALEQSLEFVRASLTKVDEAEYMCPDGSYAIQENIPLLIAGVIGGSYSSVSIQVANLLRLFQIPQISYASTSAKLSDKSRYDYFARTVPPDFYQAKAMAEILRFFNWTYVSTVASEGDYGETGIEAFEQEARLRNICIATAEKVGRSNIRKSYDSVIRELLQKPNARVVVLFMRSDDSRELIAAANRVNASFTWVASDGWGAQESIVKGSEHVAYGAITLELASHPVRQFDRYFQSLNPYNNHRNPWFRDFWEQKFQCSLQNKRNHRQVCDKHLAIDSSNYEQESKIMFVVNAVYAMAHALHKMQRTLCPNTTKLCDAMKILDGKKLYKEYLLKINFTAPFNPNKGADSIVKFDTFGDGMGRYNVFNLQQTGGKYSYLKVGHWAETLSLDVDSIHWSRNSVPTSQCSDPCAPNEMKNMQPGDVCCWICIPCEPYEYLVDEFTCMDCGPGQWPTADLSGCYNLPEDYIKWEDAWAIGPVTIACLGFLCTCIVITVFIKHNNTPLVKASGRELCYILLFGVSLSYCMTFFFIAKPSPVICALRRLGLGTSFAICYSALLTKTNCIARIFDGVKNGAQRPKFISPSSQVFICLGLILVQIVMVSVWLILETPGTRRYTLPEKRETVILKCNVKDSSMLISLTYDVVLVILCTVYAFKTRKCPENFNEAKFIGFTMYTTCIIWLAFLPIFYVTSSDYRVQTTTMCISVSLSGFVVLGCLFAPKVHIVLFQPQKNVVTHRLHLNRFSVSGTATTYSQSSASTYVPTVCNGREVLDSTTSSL

Take `COc1ccc(C(=O)O)cc1OCCCCCCCOc1ccc(C(=O)CC(C)(C)C)c(O)c1C` [Example 20, 3-{7-[4-(3,3-Dimethylbutanoyl)-3-hydroxy-2-methylphenoxy]heptyloxy}-4-methoxybenzoic acid]: the EC50 (commonly the concentration that produces a half-maximal response) amounted to 1060 nM on Human mGlu3 and 334 nM on Human mGlu2.
For `COc1cccc(C(=O)c2ccc(OCc3cccc(-c4cccc(C(=O)O)c4)c3)c(C)c2O)c1` [compound 62, 3′-((3-Hydroxy-4-(3-methoxybenzoyl)-2-methylphenoxy)methyl)-[1,1′-biphenyl]-3-carboxylic acid], in that order: 1600 nM and 1170 nM.
For `COc1ccc(C(=O)O)cc1CCCCCOc1ccc(C(=O)CC(C)(C)C)c(O)c1C` [Example 3, 3-(5-(4-(3,3-Dimethylbutanoyl)-3-hydroxy-2-methylphenoxy)pentyl)-4-methoxybenzoic acid], in that order: 750 nM and 1350 nM.
For `COc1cccc(C(=O)c2ccc(OCc3cnc(-c4cccc(C(=O)O)c4)cn3)c(C)c2O)c1` [compound 75, 3-(5-((3-Hydroxy-4-(3-methoxybenzoyl)-2-methylphenoxy)methyl)pyrazin-2-yl)benzoic acid], in that order: 1340 nM and 2710 nM.
Consider `COc1ccc(C(=O)O)cc1OCCCCCCCCCOc1ccc(C(=O)CC(C)(C)C)c(O)c1C` [Example 27, 3-{9-[4-(3,3-Dimethylbutanoyl)-3-hydroxy-2-methylphenoxy]nonyloxy}-4-methoxybenzoic acid], for which the EC50 amounted to 1120 nM on Human mGlu3 and 710 nM on Human mGlu2.
For `Cc1c(C(=O)O)cccc1-c1noc(COc2ccc(C(=O)CC(C)(C)C)c(O)c2C)n1` [compound 157, 3-(5-((4-(3,3-Dimethylbutanoyl)-3-hydroxy-2-methylphenoxy)methyl)-1,2,4-oxadiazol-3-yl)-2-methylbenzoic acid], in that order: 148 nM and 48 nM.
For `COc1ccc(C(=O)O)cc1OCCCCCCCCCCOc1ccc(C(=O)CC(C)(C)C)c(O)c1C` [Example 28, 3-{10-[4-(3,3-Dimethylbutanoyl)-3-hydroxy-2-methylphenoxy]decyloxy}-4-methoxybenzoic acid], in that order: 995 nM and 415 nM.
As for `[2H]/C(=C(/[2H])C([2H])([2H])Oc1ccc(C(=O)CCC)c(O)c1C)C([2H])([2H])Oc1cccc(C(=O)O)c1C` [Example 58, (E)-3-((4-(4-Butyryl-3-hydroxy-2-methylphenoxy)but-2-en-1-yl-1,1,2,3,4,4-d6)oxy)-2-methylbenzoic acid], the EC50 at Human mGlu3 was 540 nM; on Human mGlu2, 8 nM.
Taken in the same sequence, the figures for `COc1c(C(=O)O)cccc1-c1ccc(COc2ccc(C(=O)CC(C)(C)C)c(O)c2C)nc1` [compound 152, 3-(6-((4-(3,3-Dimethylbutanoyl)-3-hydroxy-2-methylphenoxy)methyl)pyridin-3-yl)-2-methoxybenzoic acid] were 74 nM and 130 nM.
On to `COc1ccc(NC(=O)NS(C)(=O)=O)cc1OCCCCOc1ccc(C(=O)CC(C)(C)C)c(O)c1C` [compound 87, N-((3-(4-(4-(3,3-dimethylbutanoyl)-3-hydroxy-2-methylphenoxy)butoxy)-4-methoxyphenyl)carbamoyl)methanesulfonamide], for which the EC50 at Rat mGlu3 was 2390 nM; on Rat mGlu2 it was 1320 nM.
Taken in the same sequence, the figures for `COc1ccc(C(=O)O)cc1OCc1cccc(COc2ccc(C(=O)CC(C)(C)C)c(O)c2C)c1` [compound 90, 3-((3-((4-(3,3-Dimethylbutanoyl)-3-hydroxy-2-methylphenoxy)methyl)benzyl)oxy)-4-methoxybenzoic acid] were 923 nM and 322 nM.
Taken in the same sequence, the figures for `COc1ccc(C(=O)O)cc1OCCCCOc1ccc(C(O)CC(C)(C)C)c(O)c1C` (stereo not shown) [compound 96, 3-{4-[3-Hydroxy-4-(1-hydroxy-3,3-dimethylbutyl)-2-methylphenoxy]butoxy}-4-methoxybenzoic acid] were > 10000 nM and 1640 nM.
For `Cc1c(OCc2cnc(-c3cccc(C(=O)NC4CC4)c3)cn2)ccc(C(=O)CC(C)(C)C)c1O` [compound 113, N-Cyclopropyl-3-(5-((4-(3,3-dimethylbutanoyl)-3-hydroxy-2-methylphenoxy)methyl)pyrazin-2-yl)benzamide], in that order: 333 nM and 1270 nM.
As for `COc1ccc(C(=O)O)cc1OCCCCOc1ccc(C(=O)Cc2ccccc2)c(O)c1C` [compound 120, 3-(4-(3-Hydroxy-2-methyl-4-(2-phenylacetyl)phenoxy)butoxy)-4-methoxybenzoic acid], the EC50 on Rat mGlu3 was determined as 642 nM; at Rat mGlu2, 220 nM.
For `CCCC(=O)c1ccc(OCCCCCOc2ccc(C(=O)CCC)c(O)c2C)c(C)c1O` [compound 111, 1-{4-[5-(4-Butanoyl-3-hydroxy-2-methylphenoxy)pentyloxy]-2-hydroxy-3-methylphenyl}butan-1-one], in that order: > 30000 nM and > 10000 nM.
Taken in the same sequence, the figures for `Cc1c(OCc2cccc(-c3cccc(NC(=O)NS(C)(=O)=O)c3)c2)ccc(C(=O)CC(C)(C)C)c1O` [compound 88, N-((3′-((4-(3,3-Dimethylbutanoyl)-3-hydroxy-2-methylphenoxy)methyl)-[1,1′-biphenyl]-3-yl)carbamoyl)methanesulfonamide] were > 10000 nM and 1530 nM.
For `Cc1c(OCc2ccnc(-c3cccc(C(=O)O)c3)n2)ccc(C(=O)CC(C)(C)C)c1O` [compound 114, 3-(4-((4-(3,3-Dimethylbutanoyl)-3-hydroxy-2-methylphenoxy)methyl)pyrimidin-2-yl)benzoic acid], in that order: 258 nM and 391 nM.
